Patent US9481676B2, “Azepino[4,5-B]indoles and methods of use” (Medivation Technologies, Inc., priority 2008, dated 2016)

Biological target: T1, human recombinant adrenergic α2B receptor (Homo sapiens, UniProt P18089)
T1 construct: expressed in transfected cells; host or cells: CHO-K1 cells
T1 sequence (P18089 1-450): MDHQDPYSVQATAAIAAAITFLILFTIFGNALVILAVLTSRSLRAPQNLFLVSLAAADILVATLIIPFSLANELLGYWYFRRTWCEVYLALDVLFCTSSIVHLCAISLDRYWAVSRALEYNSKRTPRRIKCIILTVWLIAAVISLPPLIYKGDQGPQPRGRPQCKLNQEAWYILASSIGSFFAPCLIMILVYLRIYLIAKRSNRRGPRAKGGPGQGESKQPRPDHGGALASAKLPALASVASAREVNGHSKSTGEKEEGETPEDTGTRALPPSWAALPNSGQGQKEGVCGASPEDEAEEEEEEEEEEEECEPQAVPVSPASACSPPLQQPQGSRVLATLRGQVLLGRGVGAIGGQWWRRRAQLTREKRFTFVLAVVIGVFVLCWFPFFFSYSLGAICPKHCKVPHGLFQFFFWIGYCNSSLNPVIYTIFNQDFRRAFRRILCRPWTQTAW
Test: Adrenergic alpha2B radioligand binding ([3H]Rauwolscine)
Conditions: compound at 1 μM; read-out: Adrenergic (1 μM) α2B, percent inhibition of specific binding
Description: To evaluate in radioligand binding assays the activity of compounds of the invention, human recombinant adrenergic α2B receptor expressed in Chinese hamster ovary (CHO-K1) cells (Uhlen S et al. Eur J. Pharmacol. 343(1):93, 1998) in a modified Tris-HCl buffer (50 mM Tris-HCl, pH 7.4, 12.5 mM MgCl2, 1 mM EDTA, 0.2% BSA) was used. Compounds of the invention were incubated with 2.5 nM [^3H]Rauwolscine for 60 min. at 25° C. Non-specific binding was estimated in the presence of 10 μM Prozosin. Receptor proteins were filtered and washed, the filters were then counted to determine [^3H]Rauwolscine specifically bound. Compounds were screened at 1 μM or lower, using 1% DMSO as vehicle. Biochemical assay results are presented as the percent inhibition of specific binding in Table 5.

SMILES	inhibition at 1 µM [%]
Cc1ccc2c(c1)c1c(n2CCc2cncc(Cl)c2)CCN(C)CC1 [Compound No. 4, 6-(2-(5-chloropyridin-3-yl)ethyl)-1,2,3,4,5,6-hexahydro-3,9-dimethylazepino[4,5-b]indole]	93
CN1CCc2c(n(CCc3ccncc3)c3ccc(Cl)cc23)CC1 [Compound No. 5, 9-chloro-1,2,3,4,5,6-hexahydro-3-methyl-6-(2-(pyridin-4-yl)ethyl)azepino[4,5-b]indole]	100
Cc1ccc2c(c1)c1c(n2CCc2ccncc2)CCN(C)CC1 [Compound No. 6, 1,2,3,4,5,6-hexahydro-3,9-dimethyl-6-(2-(pyridin-4-yl)ethyl)azepino[4,5-b]indole]	106
Cc1ccc(C(O)Cn2c3c(c4cc(Cl)ccc42)CCN(C)CC3)cn1 (stereo not shown) [Compound No. 7, 2-(9-chloro-2,3,4,5-tetrahydro-3-methylazepino[4,5-b]indol-6(1H)-yl)-1-(6-methylpyridin-3-yl)ethanol]	101
CN1CCc2c(n(CCc3ccccn3)c3ccc(Cl)cc23)CC1 [Compound No. 8, 9-chloro-1,2,3,4,5,6-hexahydro-3-methyl-6-(2-(pyridin-2-yl)ethyl)azepino[4,5-b]indole]	103
Cc1ccc2c(c1)c1c(n2CCc2ccccn2)CCN(C)CC1 [Compound No. 9, 1,2,3,4,5,6-hexahydro-3,9-dimethyl-6-(2-(pyridin-2-yl)ethyl)azepino[4,5-b]indole]	90
CN1CCc2c(n(CCc3cncc(Cl)c3)c3ccc(Cl)cc23)CC1 [Compound No. 10, 9-chloro-6-(2-(5-chloropyridin-3-yl)ethyl)-1,2,3,4,5,6-hexahydro-3-methylazepino[4,5-b]indole]	101
Cc1ccc2c(c1)c1c(n2CCc2ccc(C(=O)O)nc2)CCN(C)CC1 [Compound No. 11, 5-(2-(2,3,4,5-tetrahydro-3,9-dimethylazepino[4,5-b]indol-6(1H)-yl)ethyl)pyridine-2-carboxylic acid]	3
CN1CCc2c(n(CC(C)(O)c3ccc(Cl)cc3)c3ccc(Cl)cc23)CC1 (stereo not shown) [Compound No. 12, 1-(9-chloro-2,3,4,5-tetrahydro-3-methylazepino[4,5-b]indol-6(1H)-yl)-2-(4-chlorophenyl)propan-2-ol]	103
CN1CCc2c(n(CC(C)(O)c3ccc(F)cc3)c3ccc(Cl)cc23)CC1 (stereo not shown) [Compound No. 13, 1-(9-chloro-2,3,4,5-tetrahydro-3-methylazepino[4,5-b]indol-6(1H)-yl)-2-(4-fluorophenyl)propan-2-ol]	105
Cc1ccc2c(c1)c1c(n2CC(C)(O)c2ccc(F)cc2)CCN(C)CC1 (stereo not shown) [Compound No. 14, 2-(4-fluorophenyl)-1-(2,3,4,5-tetrahydro-3,9-dimethylazepino[4,5-b]indol-6(1H)-yl)propan-2-ol]	100
Cc1ccc2c(c1)c1c(n2CC(C)(O)c2ccc(Cl)cc2)CCN(C)CC1 (stereo not shown) [Compound No. 15, 2-(4-chlorophenyl)-1-(2,3,4,5-tetrahydro-3,9-dimethylazepino[4,5-b]indol-6(1H)-yl)propan-2-ol]	104
CN1CCc2c(n(CC(O)c3ccc(Cl)cc3)c3ccc(Cl)cc23)CC1 (stereo not shown) [Compound No. 16, 2-(9-chloro-2,3,4,5-tetrahydro-3-methylazepino[4,5-b]indol-6(1H)-yl)-1-(4-chlorophenyl)ethanol]	99
Cc1ccc2c(c1)c1c(n2CC(O)c2ccc(Cl)cc2)CCN(C)CC1 (stereo not shown) [Compound No. 17, 1-(4-chlorophenyl)-2-(2,3,4,5-tetrahydro-3,9-dimethylazepino[4,5-b]indol-6(1H)-yl)ethanol]	99
CN1CCc2c(n(CC(O)c3cccnc3)c3ccc(Cl)cc23)CC1 (stereo not shown) [Compound No. 18, 2-(9-chloro-2,3,4,5-tetrahydro-3-methylazepino[4,5-b]indol-6(1H)-yl)-1-(pyridin-3-yl)ethanol]	98
Cc1ccc2c(c1)c1c(n2CC(O)c2cccnc2)CCN(C)CC1 (stereo not shown) [Compound No. 19, 2-(2,3,4,5-tetrahydro-3,9-dimethylazepino[4,5-b]indol-6(1H)-yl)-1-(pyridin-3-yl)ethanol]	90
Cc1ccc2c(c1)c1c(n2CCc2ccc(C(F)(F)F)nc2)CCN(C)CC1 [Compound No. 20, 6-(2-(6-(trifluoromethyl)pyridin-3-yl)ethyl)-1,2,3,4,5,6-hexahydro-3,9-dimethylazepino[4,5-b]indole]	88
CN1CCc2c(n(CCc3ccc(C(=O)O)nc3)c3ccc(Cl)cc23)CC1 [Compound No. 21, 5-(2-(9-chloro-2,3,4,5-tetrahydro-3-methylazepino[4,5-b]indol-6(1H)-yl)ethyl)pyridine-2-carboxylic acid]	6
Cc1ccc2c(c1)c1c(n2CC(=O)NC2CCCCC2)CCN(C)CC1 [Compound No. 22, N-cyclohexyl-2-(2,3,4,5-tetrahydro-3,9-dimethylazepino[4,5-b]indol-6(1H)-yl)acetamide]	-7
Cc1ccc2c(c1)c1c(n2CC(O)c2ccc(C)nc2)CCN(C)CC1 (stereo not shown) [Compound No. 23, 2-(2,3,4,5-tetrahydro-3,9-dimethylazepino[4,5-b]indol-6(1H)-yl)-1-(6-methylpyridin-3-yl)ethanol]	25
CN1CCc2c(n(CC(O)c3ccccc3)c3ccc(Cl)cc23)CC1 (stereo not shown) [Compound No. 24, 2-(9-chloro-2,3,4,5-tetrahydro-3-methylazepino[4,5-b]indol-6(1H)-yl)-1-phenylethanol]	99
Cc1ccc2c(c1)c1c(n2CC(O)c2ccccc2)CCN(C)CC1 (stereo not shown) [Compound No. 25, 2-(2,3,4,5-tetrahydro-3,9-dimethylazepino[4,5-b]indol-6(1H)-yl)-1-phenylethanol]	104
Cc1ccc(C(O)Cn2c3c(c4cc(Cl)ccc42)CCN(C)CC3)cc1 (stereo not shown) [Compound No. 26, 2-(9-chloro-2,3,4,5-tetrahydro-3-methylazepino[4,5-b]indol-6(1H)-yl)-1-p-tolylethanol]	104
Cc1ccc(C(O)Cn2c3c(c4cc(C)ccc42)CCN(C)CC3)cc1 (stereo not shown) [Compound No. 27, 2-(2,3,4,5-tetrahydro-3,9-dimethylazepino[4,5-b]indol-6(1H)-yl)-1-p-tolylethanol]	100
Cc1ccc2c(c1)c1c(n2CCc2ccc(Cl)cc2)CCN(C)CC1 [Compound No. 28, 6-(4-chlorophenethyl)-1,2,3,4,5,6-hexahydro-3,9-dimethylazepino[4,5-b]indole]	103
CN1CCc2c(n(CCc3ccccc3Cl)c3ccc(Cl)cc23)CC1 [Compound No. 29, 6-(2-chlorophenethyl)-9-chloro-1,2,3,4,5,6-hexahydro-3-methylazepino[4,5-b]indole]	101
CN1CCc2c(n(CCc3ccc(Cl)cc3)c3ccc(Cl)cc23)CC1 [Compound No. 30, 6-(4-chlorophenethyl)-9-chloro-1,2,3,4,5,6-hexahydro-3-methylazepino[4,5-b]indole]	100
CC(C)NC(=O)Cn1c2c(c3cc(Cl)ccc31)CCN(C)CC2 [Compound No. 31, 2-(9-chloro-2,3,4,5-tetrahydro-3-methylazepino[4,5-b]indol-6(1H)-yl)-N-isopropylacetamide]	23
